In patent US12692254B2, “Benzimidazole inhibitors of PAD enzymes” (BRISTOL-MYERS SQUIBB COMPANY, priority 2018, dated 2026):
pIC50: −log10 of the molar value.

molecular target: human PAD4 (hPAD4) (Homo sapiens, UniProt Q9UM07); experiment: RFMS human PAD4 functional assay (rapid-fire mass spectrum); format: biochemical; details: 5 nM hPAD4 enzyme, 250 μM BAEE, 50 μM Calcium; 30 min preincubation, 90 min reaction at 37° C.
Outline: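 PAD4 (10 nM) preincubated 30 min with compound (top final 50 μM), then BAEE substrate added in pH 7.5 HEPES buffer with DTT, 50 μM calcium, TPEN; 90 min at 37° C. After TCA quench, citrulline derivatized with phenyl glyoxal (4 mM final, 30 min, 37° C) and quantified by RapidFire MS against internal standard.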

Chain of human PAD4 (hPAD4) (Q9UM07 whole entry): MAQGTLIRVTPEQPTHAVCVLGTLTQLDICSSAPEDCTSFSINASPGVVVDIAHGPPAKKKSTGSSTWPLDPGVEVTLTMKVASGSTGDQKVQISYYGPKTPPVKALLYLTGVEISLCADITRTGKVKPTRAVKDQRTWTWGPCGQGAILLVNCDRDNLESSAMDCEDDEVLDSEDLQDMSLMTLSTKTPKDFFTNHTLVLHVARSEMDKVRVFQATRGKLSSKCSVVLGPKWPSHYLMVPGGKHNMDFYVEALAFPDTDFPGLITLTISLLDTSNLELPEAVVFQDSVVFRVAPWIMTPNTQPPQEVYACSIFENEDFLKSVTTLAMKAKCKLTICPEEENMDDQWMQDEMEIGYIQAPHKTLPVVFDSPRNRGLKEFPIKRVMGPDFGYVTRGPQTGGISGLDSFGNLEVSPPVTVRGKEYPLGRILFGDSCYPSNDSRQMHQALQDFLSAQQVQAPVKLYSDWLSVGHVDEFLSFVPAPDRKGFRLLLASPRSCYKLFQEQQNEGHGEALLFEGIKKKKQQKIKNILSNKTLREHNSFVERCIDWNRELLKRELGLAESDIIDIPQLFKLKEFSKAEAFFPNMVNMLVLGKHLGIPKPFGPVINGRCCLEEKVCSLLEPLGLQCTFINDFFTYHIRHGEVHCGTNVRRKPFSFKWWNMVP

pIC50 | Structure (SMILES)
7.17 | CCCC(=O)N1CC(Cn2c(-c3cc4cccnc4n3CC3CC3)nc3cc(C(=O)N4C[C@H]5CC[C@@H]4[C@@H]5N)cc(OC)c32)C1 [Example 118, 1-[3-({5-[(1R,4R,7R)-7-amino-2-azabicyclo[2.2.1]heptane-2-carbonyl]-2-[1-(cyclopropylmethyl)-1H-pyrrolo[2,3-b]pyridin-2-yl]-7-methoxy-1H-1,3-benzodiazol-1-yl}methyl)azetidin-1-yl]butan-1-one]
6.66 | COc1cc(C(=O)N2C[C@H]3CC[C@@H]2[C@@H]3N)cc2nc(-c3cc4cccnc4n3CC3CC3)n(C3CCN(C(=O)c4cnc(C#N)nc4)CC3)c12 [Example 229, 5-(4-{5-[(1R,4R,7R)-7-amino-2-azabicyclo[2.2.1]heptane-2-carbonyl]-2-[1-(cyclopropylmethyl)-1H-pyrrolo[2,3-b]pyridin-2-yl]-7-methoxy-1H-1,3-benzodiazol-1-yl}piperidine-1-carbonyl)pyrimidine-2-carbonitrile]
7.06 | COc1cc(C(=O)N2CC3CCC2[C@@H]3N)cc2nc(-c3cc4ccccc4n3CC(F)(F)F)n(Cc3cnn(C)c3)c12 (stereo partly drawn) [Example 495, (7R)-2-{7-methoxy-1-[(1-methyl-1H-pyrazol-4-yl)methyl]-2-[1-(2,2,2-trifluoroethyl)-1H-indol-2-yl]-1H-1,3-benzodiazole-5-carbonyl}-2-azabicyclo[2.2.1]heptan-7-amine]
6.83 | COc1cc(C(=O)N2CC3CCC2[C@@H]3N)cc2nc(-c3cc4ccccc4n3CC3CC3)n(CC3CC(=O)N(C)C3)c12 (stereo partly drawn) [Example 474, 4-({5-[(7R)-7-amino-2-azabicyclo[2.2.1]heptane-2-carbonyl]-2-[1-(cyclopropylmethyl)-1H-indol-2-yl]-7-methoxy-1H-1,3-benzodiazol-1-yl}methyl)-1-methylpyrrolidin-2-one]
7.64 | COc1cc(C(=O)N2CC3CCC2[C@@H]3N)cc2nc(-c3cc4cccnc4n3CC3CC3)n(Cc3cnn(-c4cccc(C(F)(F)F)n4)c3)c12 (stereo partly drawn) [Example 356, (7R)-2-{2-[1-(cyclopropylmethyl)-1H-pyrrolo[2,3-b]pyridin-2-yl]-7-methoxy-1-({1-[6-(trifluoromethyl)pyridin-2-yl]-1H-pyrazol-4-yl}methyl)-1H-1,3-benzodiazole-5-carbonyl)-2-azabicyclo[2.2.1]heptan-7-amine]
7.39 | COc1cc(C(=O)N2C[C@H](N)C[C@@H](F)C2)cc2nc(-c3cc4cccnc4n3CC3CC3)n(Cc3cnn(-c4cccnc4O)c3)c12 [Example 382, 3-[4-({5-[(3R,5R)-3-amino-5-fluoropiperidine-1-carbonyl]-2-[1-(cyclopropylmethyl)-1H-pyrrolo[2,3-b]pyridin-2-yl]-7-methoxy-1H-1,3-benzodiazol-1-yl}methyl)-1H-pyrazol-1-yl]pyridin-2-ol]
7.21 | COc1cc(C(=O)N2C[C@H]3CC[C@@H]2[C@@H]3N)cc2nc(-c3cc4ccc(Cl)cc4n3CC3CC3)n(CC3CN(c4cncc(C)c4)C3)c12 [Example 23, (1R,4R,7R)-2-{2-[6-chloro-1-(cyclopropylmethyl)-1H-indol-2-yl]-7-methoxy-1-{[1-(5-methylpyridin-3-yl)azetidin-3-yl]methyl}-1H-1,3-benzodiazole-5-carbonyl}-2-azabicyclo[2.2.1]heptan-7-amine]
7.02 | COc1cc(C(=O)N2C[C@H]3CC[C@@H]2[C@@H]3N)cc2nc(-c3cc4cccnc4n3CC3CC3)n(CC3CN(C(=O)c4cnc(NCC(C)(C)O)nc4)C3)c12 [Example 121, 1-({5-[3-({5-[(1R,4R,7R)-7-amino-2-azabicyclo[2.2.1]heptane-2-carbonyl]-2-[1-(cyclopropylmethyl)-1H-pyrrolo[2,3-b]pyridin-2-yl]-7-methoxy-1H-1,3-benzodiazol-1-yl}methyl)azetidine-1-carbonyl]pyrimidin-2-yl}amino)-2-methylpropan-2-ol]
6.61 | COc1cc(C(=O)N2C[C@H]3CC[C@@H]2[C@@H]3N)cc2nc(-c3cc4cccnc4n3CC3CC3)n(CC3CN(S(=O)(=O)C(C)C)C3)c12 [Example 335, (1R,4R,7R)-2-{2-[1-(cyclopropylmethyl)-1H-pyrrolo[2,3-b]pyridin-2-yl]-7-methoxy-1-{[1-(propane-2-sulfonyl)azetidin-3-yl)methyl}-1H-1,3-benzodiazole-5-carbonyl}-2-azabicyclo[2.2.1]heptan-7-amine]
7.57 | COc1cc(C(=O)N2C[C@H](N)C[C@@H](F)C2)cc2nc(-c3cc4ccccc4n3CC3CC3)n(CC3(F)CN(C(=O)c4ccccc4)C3)c12 [Example 425, (3R,5R)-1-{1-[(1-benzoyl-3-fluoroazetidin-3-yl)methyl]-2-[1-(cyclopropylmethyl)-1H-indol-2-yl]-7-methoxy-1H-1,3-benzodiazole-5-carbonyl}-5-fluoropiperidin-3-amine]
6.70 | COc1cc(C(=O)N2CC3CCC2[C@@H]3N)cc2nc(-c3cc4cccnc4n3CC3CC3)n(CC3CCN(C(=O)c4ccnc(C#N)c4)CC3)c12 (stereo partly drawn) [Example 200, 4-[4-({5-[(1R,4R,7R)-7-amino-2-azabicyclo[2.2.1]heptane-2-(cyclopropylmethyl)-1H-pyrrolo[2,3-b]pyridin-2-yl]-7-methoxy-1H-1,3-benzodiazol-1-yl}methyl)piperidine-1-carbonyl]pyridine-2-carbonitrile]
7.02 | COc1cc(C(=O)N2CCC[C@@H](N)C2)cc2nc(-c3cc4ccccc4n3CC3CC3)n(CC3CN(C(=O)c4ccc(C#N)cc4)C3)c12 [Example 180, 4-[3-({5-[(3R)-3-aminopiperidine-1-carbonyl]-2-[1-(cyclopropylmethyl)-1H-indol-2-yl]-7-methoxy-1H-1,3-benzodiazol-1-yl}methyl)azetidine-1-carbonyl]benzonitrile]
6.40 | COc1cc(C(=O)N2C[C@H]3CC[C@@H]2[C@@H]3N)cc2nc(-c3cc4cccnc4n3CC3CC3)n(CC3CN(c4nc(O)ncc4C#N)C3)c12 [Example 79, 4-[3-({5-[(1R,4R,7R)-7-amino-2-azabicyclo[2.2.1]heptane-2-carbonyl]-2-[1-(cyclopropylmethyl)-1H-pyrrolo[2,3-b]pyridin-2-yl]-7-methoxy-1H-1,3-benzodiazol-1-yl}methyl)azetidin-1-yl]-2-hydroxypyrimidine-5-carbonitrile]
6.77 | COc1cc(C(=O)N2C[C@H]3CC[C@@H]2[C@@H]3N)cc2nc(-c3cc4cc(Cl)ccc4n3C)n(CC3CN(c4cncc(C#N)n4)C3)c12 [Example 59, 6-[3-({5-[(1R,4R,7R)-7-amino-2-azabicyclo[2.2.1]heptane-2-carbonyl]-2-(5-chloro-1-methyl-1H-indol-2-yl)-7-methoxy-1H-1,3-benzodiazol-1-yl}methyl)azetidin-1-yl]pyrazine-2-carbonitrile]
7.14 | COc1cc(C(=O)N2CC3CCC2[C@@H]3N)cc2nc(-c3cc4ccccc4n3CC3CC3)n(CC3CN(C(=O)c4cnc(C#N)nc4)C3)c12 (stereo partly drawn) [Example 463, 5-[3-({5-[(7R)-7-amino-2-azabicyclo[2.2.1]heptane-2-carbonyl]-2-[1-(cyclopropylmethyl)-1H-indol-2-yl]-7-methoxy-1H-1,3-benzodiazol-1-yl}methyl)azetidine-1-carbonyl]pyrimidine-2-carbonitrile]
5.89 | COc1cc(C(=O)N2CC3CCC2[C@@H]3N)cc2nc(-c3cc4cccnc4n3CC3CC3)n(CCNC(C)=O)c12 (stereo partly drawn) [Example 289, N-(2-{5-[(1R,4R,7R)-7-amino-2-azabicyclo[2.2.1]heptane-2-carhonyl]-2-[1-(cyclopropylmethyl)-1H-pyrrolo[2,3-b]pyridin-2-yl]-7-methoxy-1H-1,3-benzodiazol-1-yl}ethyl)acetamide]
6.87 | CCn1cc(Cn2c(-c3cc4cccnc4n3CC3CC3)nc3cc(C(=O)N4C[C@H](N)C[C@@H](F)C4)cc(OC)c32)cn1 [Example 501, (3R,5R)-1-{2-[1-(cyclopropylmethyl)-1H-pyrrolo[2,3-b]pyridin-2-yl]-1-[(1-ethyl-1H-pyrazol-4-yl)methyl]-7-methoxy-1H-1,3-benzodiazole-5-carbonyl}-5-fluoropiperidin-3-amine]
5.68 | COc1cc(C(=O)N2CC3CCC2[C@@H]3N)cc2nc(-c3cc4cccnc4n3CC3CC3)n([C@H]3C[C@@H](NS(C)(=O)=O)C3)c12 (stereo partly drawn) [Example 297, N-[(1s,3s)-3-{5-[(1R,4R,7R)-7-amino-2-azabicyclo[2.2.1]heptane-2-carbonyl]-2-[1-(cyclopropylmethyl)-1H-pyrrolo[2,3-b]pyridin-2-yl]-7-methoxy-1H-1,3-benzodiazol-1-yl}cyclobutyl]methanesulfonamide]
7.21 | COc1cc(C(=O)N2CC3CCC2[C@@H]3N)cc2nc(-c3cc4cccnc4n3CC3CC3)n(Cc3cnn(-c4cncc(C#N)c4)c3)c12 (stereo partly drawn) [Example 346, 5-[4-({5-[(7R)-7-amino-2-azabicyclo[2.2.1]heptane-2-carbonyl]-2-[1-(cyclopropylmethyl)-1H-pyrrolo[2,3-b]pyridin-2-yl]-7-methoxy-1H-1,3-benzodiazol-1-yl}methyl)-1H-pyrazol-1-yl]pyridine-3-carbonitrile]
7.54 | COc1cccc(-n2cc(Cn3c(-c4cc5cccnc5n4CC4CC4)nc4cc(C(=O)N5C[C@H](N)C[C@@H](F)C5)cc(OC)c43)cn2)n1 [Example 369, (3R,5R)-1-{2-[1-(cyclopropylmethyl)-1H-pyrrolo[2,3-b]pyridin-2-yl]-7-methoxy-1-{[1-(6-methoxypyridin-2-yl)-1H-pyrazol-4-yl]methyl}-1H-1,3-benzodiazole-5-carbonyl}-5-fluoropiperidin-3-amine]
6.43 | COc1cc(C(=O)N2C[C@H](N)C[C@@H](F)C2)cc2nc(-c3cc4ccccc4n3CC3CC3)n(Cc3cn(C)nc3C)c12 [Example 512, (3R,5R)-1-{2-[1-(cyclopropylmethyl)-1H-indol-2-yl]-1-[(1,3-dimethyl-1H-pyrazol-4-yl)methyl]-7-methoxy-1H-1,3-benzodiazole-5-carbonyl}-5-fluoropiperidin-3-amine]
